{"source": "patent US20250114351A1", "about": "“5-HT2C RECEPTOR MODULATING AGENTS FOR THE TREATMENT OF NEURODEGENERATIVE, MENTAL, COGNITIVE AND AUTOIMMUNE CNS DISORDERS” (priority 2022, published 2025)", "origin": "cited, not measured here", "key": {"[1]": {"biological_target": "5-HT2B (Homo sapiens, UniProt P41595)", "sequence (P41595 whole entry, species assumed)": "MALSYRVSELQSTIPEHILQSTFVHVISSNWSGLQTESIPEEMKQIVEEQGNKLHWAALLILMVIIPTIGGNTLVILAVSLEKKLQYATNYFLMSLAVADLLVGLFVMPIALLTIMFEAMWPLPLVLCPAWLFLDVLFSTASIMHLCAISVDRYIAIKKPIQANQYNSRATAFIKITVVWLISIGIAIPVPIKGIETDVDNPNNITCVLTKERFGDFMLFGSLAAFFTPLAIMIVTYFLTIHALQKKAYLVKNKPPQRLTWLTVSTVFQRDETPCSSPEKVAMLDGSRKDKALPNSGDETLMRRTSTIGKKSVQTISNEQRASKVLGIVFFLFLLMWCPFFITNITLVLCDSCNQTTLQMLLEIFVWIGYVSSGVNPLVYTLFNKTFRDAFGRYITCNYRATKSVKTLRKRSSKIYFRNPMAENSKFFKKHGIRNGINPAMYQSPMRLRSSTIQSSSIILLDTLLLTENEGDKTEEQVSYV"}, "[2]": {"biological_target": "5-HT2A (Homo sapiens, UniProt P28223)", "sequence (P28223 whole entry, species assumed)": "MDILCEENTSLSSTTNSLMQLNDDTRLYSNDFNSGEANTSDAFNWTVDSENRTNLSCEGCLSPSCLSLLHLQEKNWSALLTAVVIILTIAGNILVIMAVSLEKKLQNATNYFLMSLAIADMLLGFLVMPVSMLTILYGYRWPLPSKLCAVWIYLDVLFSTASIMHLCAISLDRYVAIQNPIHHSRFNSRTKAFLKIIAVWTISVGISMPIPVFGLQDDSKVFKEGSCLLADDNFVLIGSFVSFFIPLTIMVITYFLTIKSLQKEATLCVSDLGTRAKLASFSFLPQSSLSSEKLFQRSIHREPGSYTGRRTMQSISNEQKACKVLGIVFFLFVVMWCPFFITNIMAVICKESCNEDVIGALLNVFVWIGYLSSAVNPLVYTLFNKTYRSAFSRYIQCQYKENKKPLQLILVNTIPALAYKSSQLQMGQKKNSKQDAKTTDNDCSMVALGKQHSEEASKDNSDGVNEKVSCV"}, "[3]": {"biological_target": "T1, 5-HT2C (Homo sapiens, UniProt P28335)", "T1 sequence (P28335 33-458)": "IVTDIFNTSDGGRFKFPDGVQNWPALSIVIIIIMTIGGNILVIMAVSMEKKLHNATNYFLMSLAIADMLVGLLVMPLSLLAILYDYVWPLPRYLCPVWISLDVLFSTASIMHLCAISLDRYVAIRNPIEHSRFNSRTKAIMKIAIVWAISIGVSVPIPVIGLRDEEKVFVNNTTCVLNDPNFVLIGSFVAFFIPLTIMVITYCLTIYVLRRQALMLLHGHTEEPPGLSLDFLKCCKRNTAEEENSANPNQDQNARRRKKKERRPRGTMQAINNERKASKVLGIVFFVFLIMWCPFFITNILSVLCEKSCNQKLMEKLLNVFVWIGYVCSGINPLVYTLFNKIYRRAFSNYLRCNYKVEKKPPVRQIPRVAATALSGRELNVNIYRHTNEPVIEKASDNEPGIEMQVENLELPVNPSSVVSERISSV"}}}
{"smiles": "c1cc2c3c(c1)[C@H]1CCC[C@H]1N3CCNC2", "note": "[WAY-163909, (7bR,10aR)-1,2,3,4,8,9,10,10a-octahydro-7bH-cyclopenta-[b][1,4]diazepino[6,7,1hi]indole]", "values": [{"measurement": "EC50", "setting": "[1]", "result": "185 ± 105", "unit": "nM"}]}
{"smiles": "Clc1cccc(COc2cncc(N3CCNCC3)n2)c1", "note": "[CP-809101, 2-(3-Chlorobenzyloxy)-6-(piperazin-1-yl)pyrazine]", "values": [{"measurement": "5-HT2A Emax", "setting": "[2]", "result": 67, "unit": "%"}, {"measurement": "EC50", "setting": "[2]", "result": 153, "unit": "nM"}]}
{"smiles": "C[C@H]1CNCCc2ccc(Cl)cc21", "note": "[Lorcaserin, (1R)-8-chloro-2,3,4,5-tetrahydro-1-methyl-1H-3-benzazepine]", "values": [{"measurement": "5-HT2A Emax", "setting": "[2]", "result": 75, "unit": "%"}, {"measurement": "5-HT2C Emax", "setting": "[3]", "result": 100, "unit": "%"}]}
{"smiles": "C[C@H](N)Cn1ccc2cc(F)c(Cl)cc21", "note": "[RO 60-01752, (S)-2-(6-chloro-5-fluoroindol-1-yl)-1-methylethylamine]", "values": [{"measurement": "5-HT2A Emax", "setting": "[2]", "result": "91 ± 5", "unit": "%"}, {"measurement": "5-HT2C Emax", "setting": "[3]", "result": "88 ± 20", "unit": "%"}, {"measurement": "5-HT2B Emax", "setting": "[1]", "result": "130 ± 30", "unit": "%"}]}
{"smiles": "c1cc2c3c(c1)[C@H]1CCC[C@H]1CN3CCNC2", "note": "[Vabicaserin]", "values": [{"measurement": "EC50", "setting": "[2]", "result": 1650, "unit": "nM"}]}
